Laboratory results as given in ChEMBL document CHEMBL1143165, “N-[omega-[4-(2-methoxyphenyl)-1-piperazinyl]alkyl]-2-quinolinamines as high-affinity fluorescent 5-HT1A receptor ligands” (J Med Chem, 2008).
Calls of active or inactive are those of the source. The rule behind the calls is not given here.

What was measured:
[1] = biological target: T1, 5-hydroxytryptamine receptor 1A (Homo sapiens, UniProt P08908); assay: Displacement of [3H]8-OH-DPAT from human 5HT1A receptor expressed in HEK293 cells after 120 mins; assay type: cell-based
T1 sequence (P08908 whole entry): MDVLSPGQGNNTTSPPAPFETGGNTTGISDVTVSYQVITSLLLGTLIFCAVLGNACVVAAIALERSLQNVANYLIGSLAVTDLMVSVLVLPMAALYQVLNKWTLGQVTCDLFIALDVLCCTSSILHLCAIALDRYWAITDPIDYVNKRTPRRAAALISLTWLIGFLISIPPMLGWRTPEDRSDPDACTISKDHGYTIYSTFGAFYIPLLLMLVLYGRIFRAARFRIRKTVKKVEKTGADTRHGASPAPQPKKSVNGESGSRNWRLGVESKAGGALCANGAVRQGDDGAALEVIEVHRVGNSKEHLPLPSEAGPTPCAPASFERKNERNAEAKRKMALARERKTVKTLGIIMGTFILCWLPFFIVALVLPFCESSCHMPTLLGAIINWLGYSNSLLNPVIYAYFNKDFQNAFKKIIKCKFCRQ

[2] = Agonist activity at 5HT1A receptor in guinea pig ileum assessed as inhibition of electrically-stimulated muscle contraction; assay type: functional, tissue-based; details: Cavia porcellus
Cavia porcellus = organism: Cavia porcellus; assay: Reversal of agonist activity at 5HT1A receptor in guinea pig in presence of 5HT1A antagonist WAY-100635; assay type: functional
[3] = Agonist activity at 5HT1A receptor in guinea pig ileum assessed as inhibition of electrically-stimulated muscle contraction relative to baseline; assay type: functional, Cavia porcellus; parameters: scale not given: the % may be the effect or the level left

| SMILES | Ki [1] | other results |
| --- | --- | --- |
| COc1ccccc1N1CCN(CCNc2ccc3ccccc3n2)CC1 | 33 nM | – |
| COc1ccccc1N1CCN(CCNc2ccc3cc([N+](=O)[O-])ccc3n2)CC1 | 14.2 nM | – |
| COc1ccccc1N1CCN(CCCCCNc2ccc3ccccc3n2)CC1 | 0.03 nM | – |
| COc1ccccc1N1CCN(CCCCNc2ccc3ccccc3n2)CC1 | 9.7 nM | – |
| COc1ccc2ccc(NCCN3CCN(c4ccccc4OC)CC3)nc2c1 | 2.1 nM | – |
| COc1ccccc1N1CCN(CCCNc2ccc3ccccc3n2)CC1 | 13 nM | – |
| COc1ccccc1N1CCN(CCCCNc2ccc3cc(N)ccc3n2)CC1 | 0.38 nM | EC50 [2]: 62100 nM; Activity [3]: 81% |

Second part, led by results:

| Ki [1] | SMILES | other results |
| --- | --- | --- |
| 0.5 nM | COc1ccc2ccc(NCCCCCN3CCN(c4ccccc4OC)CC3)nc2c1 | – |
| 0.2 nM | COc1ccc2ccc(NCCCN3CCN(c4ccccc4OC)CC3)nc2c1 | – |
| 0.2 nM | COc1ccc2nc(NCCCCN3CCN(c4ccccc4OC)CC3)ccc2c1 | EC50 [2]: 34400 nM; Activity (Cavia porcellus): Active |
| 22 nM | COc1ccc2nc(NCCCN3CCN(c4ccccc4OC)CC3)ccc2c1 | – |
| 2.6 nM | COc1ccc2nc(NCCCCCN3CCN(c4ccccc4OC)CC3)ccc2c1 | – |
| 4.6 nM | COc1ccc2ccc(NCCCCN3CCN(c4ccccc4OC)CC3)nc2c1 | – |
| 0.54 nM | COc1ccccc1N1CCN(CCCCNc2ccc3cc(C)ccc3n2)CC1 | – |
| 28 nM | COc1ccc2nc(NCCN3CCN(c4ccccc4OC)CC3)ccc2c1 | – |
